From PMC4811302, “Human β-defensin 3 contains an oncolytic motif that binds PI(4,5)P2 to mediate tumour cell permeabilisation” (Oncotarget, 2015)
Where no end group is shown, it is not given here.

Tests used:
HeLa cells = test: ATP bioluminescence release assay, HeLa; format: cell-based, human; conditions: HBD-3 titrations, bioluminescence for 30 min, PBS with 0.1% BSA, concentration-dependent
Procedure: (§1) ATP release assay was conducted using an ATP bioluminescence assay kit (Roche Diagnostics, Mannheim, Germany). U937 and HeLa cells were suspended at 1×10^6 cells/mL in PBS containing 0.1% (w/v) BSA, and mixed with luciferase/luciferin reagent at a ratio of 4:5. The mixture was added to HBD-3 samples and the level of ATP release measured immediately as bioluminescence emission signal intensity for 30 min with 30 s intervals.

[1] = system: primary cell type (HUVEC, AHDF, CASMC); test: Flow cytometry-based PI uptake assay, primary cell types; design: species or system human; conditions: 50 μM HBD-3 (highest dose tested), each primary cell type, 37°C, 30 min
Procedure: (§2) Cells suspended at 1×10^6 cells/mL in serum-free medium containing 0.1% (w/v) bovine serum albumin (BSA) (Sigma-Aldrich) were treated with HBD-3 at 37°C for 30 min. Nucleic acid stain propidium iodide (PI) was then added to a final concentration of 1 μg/mL and cells subjected to flow cytometry analysis using BD FACSCanto II Flow Cytometer and BD FACSDiva Software v6.1.1 (BD Biosciences, San Jose, CA). For each flow cytometry reading, 10,000 cells, gated appropriately based on forward scattering and side scattering, were recorded. The resultant data were processed using FlowJo software (Tree Star, San Carlos, CA) to determine PI-positivity, which reflects the level of membrane permeabilisation. For lipid inhibition assays, 15 μM HBD-3 was pre-incubated with 50 μM synthetic lipids, including L-α-phosphatidic acid (PA), L-α-phosphatidylcholine (PC), L-α-phosphatidylethanolamine (PE), L-α-phosphatidylserine (PS), L-α-phosphatidylinositol-4-phosphate (PI(4)P), L-α-phosphatidylinositol-3,5-bisphosphate (PI(3,5)P2), L-α-phosphatidylinositol-4,5-bisphosphate (PI(4,5)P2) and L-α-phosphatidylinositol-3,4,5-trisphosphate (PI(3,4,5)P)3. All lipids were sourced from Avanti Polar Lipids, Alabaster, AL. […]

U937 and HeLa cells = test: Confocal laser scanning microscopy of membrane blebbing; format: cell-based, human; conditions: 15 μM HBD-3, 15 min after addition, PKH67 and PI staining
Procedure: Live imaging was performed on a Zeiss LSM-780 confocal microscope using a 63× oil immersion objective in a 37°C incubator with 5% CO2. Adherent HeLa cells were cultured overnight on coverslips while suspension U937 cells were immobilised onto 0.01% (w/v) poly-L-lysine-coated coverslips. Both cell types were prepared in serum-free RPMI 1640 medium containing 0.1% (w/v) BSA and 2 μg/mL PI. HBD-3 or BODIPY FL EDA-labeled HBD-3 was added directly to the imaging chamber to final concentration of 15 μM, via a capillary tube. In certain experiments, prior to imaging, cells were pre-stained with the membrane dye PKH67 as per manufacturer's instructions (Sigma-Aldrich) or transfected with expression vectors carrying GFP only or GFP-tagged Pleckstrin homology domain of phospholipase C-delta 1 (GFP-PH(PLCδ1)) (kindly provided by Christina Mitchell, Monash University, Australia), using Lipofectamine 3000 reagent (Invitrogen) as per manufacturer's instructions. For CLSM involving transfections, images were taken as 4×4 tiles over 30 min, and the resultant data for GFP and GFP-PH transfected cells were analysed by counting PI-positive cells.

[2] = ATP-encapsulated liposome leakage assay, PC only; conditions: bioluminescence, normalised to HEPES and Triton X-100
Procedure: Liposomes were generated as described previously using natural PI(4,5)P2 (porcine brain, in chloroform:methanol:water at 20:9:1 molar ratio) and PC (chicken egg, in chloroform) purchased from Avanti Polar Lipids. PC only or PC:PI(4,5)P2 (95:5 molar ratio) solutions were dried under a stream of nitrogen gas followed by overnight vacuum-drying. The lipid films were rehydrated to a final concentration of 5 mg/mL in 20 mM HEPES (pH 7.2) containing 5 mg/mL adenosine-5-triphosphate disodium salt (ATP; Sigma-Aldrich) at 37°C for 1 h. After three subsequent cycles of freezing (liquid nitrogen) and thawing (25°C), multilamellar liposomes were extruded 15–20 times through a mini-extruder (Avanti Polar Lipids). Free ATP was removed by three centrifugal washes with 20 mM HEPES at 16,500 g prior to the ATP release assay. Liposomes treated with 1% Triton X-100 were included as positive control and assigned as total lysis, whereas HEPES only control served as background reading. The level of ATP release at a particular time point was determined by quotient of the corrected reading (after subtracting background) of the sample at that time point and corrected reading of total lysis, as per the following equation: % Lysist=Samplet−HEPESt/Triton X−HEPES×100

U937 cells [3] = test: Neomycin inhibition of membrane permeabilisation (PI uptake); format: cell-based, human; conditions: cells pre-treated with 10 mM neomycin, PI uptake by flow cytometry; effect overcome at higher HBD-3 concentrations
Procedure: as §2

[4] = Transmission electron microscopy of fibril formation with PI(4,5)P2; conditions: in vitro, data not shown
U937 cells [5] = test: ATP bioluminescence release assay, U937; format: cell-based, human; conditions: HBD-3 titrations, bioluminescence for 30 min, PBS with 0.1% BSA, concentration-dependent
Procedure: as §1

human β-defensin 3 (GIINTLQKYYCRVRGGRCAVLSCLPKEEQIGKCSTRGRKCCRRKK; not fully specified; cysteine pairing not given here; UniProt P81534 23-67, looked up) [HBD-3, human β-defensin 3, cationic antimicrobial peptide, recombinantly expressed in P. pastoris]
cytoplasmic ATP release (HeLa cells): rapidly released | cells permeabilised (PI-positive) [1]: less than 20% | size of membrane blebs formed in PI-positive cells (U937 and HeLa cells): > 10 μm | ATP release from ATP-encapsulated liposomes [2]: minimally induced ATP release | susceptibility of neomycin pre-incubated cells to permeabilisation compared to untreated control (U937 cells [3]): significantly less susceptible | oligomerisation to fibrils on binding PI(4,5)P2 [4]: not observed | cytoplasmic ATP release (U937 cells [5]): rapidly released
